We go through 19 compounds from US9617229B2, “Phenylmorpholines and analogues thereof” (Research Triangle Institute, priority 2010, dated 2017).

Where a name gives a salt, the structure may show the parent alone.

Assay [1] concerns the target T1, 5-HT2B receptor (Homo sapiens, UniProt P41595). The experiment in a line: 5-HT2B activity, agonist. It counts as cell-based.
Assay [2] addresses T1, 5-HT2B receptor. The experiment in a line: 5-HT2B activity, antagonist. It counts as cell-based.
For assay [3], the target named is T2, DAT (Rattus norvegicus, UniProt P23977). The assay is described as follows: DA release assay (synaptosomes, [3H]MPP+). It counts as biochemical. Details: the supernatants were retained on ice (synaptosomal preparation); from tissue; host or cells: rat caudate synaptosomes. As to conditions: for activation at 10 µM: Table 3; for DA Rel (%): Table 4, % EC50 of release. How it is done: (§1) Rat caudate (for DA release) or whole brain minus cerebellum and caudate (for NE and 5-HT release), was homogenized in ice-cold 10% sucrose containing 1 μM reserpine. Nomifensine (100 nM) and GBR12935 (100 nM) were added to the sucrose solution for [^3H]5-HT release experiments to block any potential [^3H]5-HT reuptake into NE and DA nerve terminals. For the DA release assay, 100 nM desipramine and 100 nM citalopram were added to block [^3H]MPP^+ uptake into NE and 5-HT nerves. For the NE release assay, 50 nM GBR12935 and 100 nM citalopram were added to block [^3H]MPP^+ uptake into DA and 5-HT nerves. After 12 strokes with a Potter-Elvehjem homogenizer, homogenates were centrifuged at 1000×g for 10 min at 0-4° C. and the supernatants were retained on ice (synaptosomal preparation).
(§2) After incubation to steady state, 850 μl of synaptosomes preloaded with [^3H]ligand were added to 12×75 mm polystyrene test tubes that contained 150 μl test drug in uptake buffer plus 1 mg/ml BSA. After 5 min (^3H]5-HT) or 30 min (NE and DA assays) the release reaction was terminated by dilution with 4 ml wash buffer (10 mM Tris-HCl pH 7.4 containing 0.9% NaCl at 25° C.) followed by rapid vacuum filtration over Whatman GF/B filters using a Brandel Harvester. The filters were rinsed twice with 4 ml wash buffer using the Brandel Harvester, and the retained tritium was counted by a Taurus liquid scintillation counter at 40% efficiency after an overnight extraction in 3 ml Cytoscint (ICN).
(§3) In substrate reversal experiments, statistical significance was determined using the Student's t-test.

The next assay has as its target T3, NET (Rattus norvegicus, UniProt Q63380).
T3 construct: the supernatants were retained on ice (synaptosomal preparation); from tissue; host or cells: rat whole brain minus cerebellum and caudate, synaptosomes
The experiment in a line: NE release assay (synaptosomes, [3H]MPP+). As to conditions: for NE Rel (%): % EC50 of release. It counts as biochemical. How it is done: as §1, §2, §3

In assay [4] the target is T4, SERT (Rattus norvegicus, UniProt P31652). The experiment in a line: 5-HT release assay (synaptosomes, [3H]5-HT). As to conditions: for activation at 10 µM / Release 5-HT (EC50 nm): Table 3; for Release 5-HT (EC50 nm): rat brain synaptosomes; for 5HT Rel (%): Table 4, % EC50 of release. Details: the supernatants were retained on ice (synaptosomal preparation); from tissue; host or cells: rat whole brain minus cerebellum and caudate, synaptosomes. It counts as biochemical. How it is done:
as §1, §2, §3

Assay [5] has as its target T4, SERT. The experiment in a line: 5HT uptake inhibition. It counts as biochemical.
Assay [6] deals with T2, DAT. The experiment in a line: DA uptake inhibition. It counts as biochemical. Particulars: Table 5.
Where [7] appears, read: Release NE (EC50 nm), Table 3, rat brain synaptosomes.

T2 sequence (P23977 whole entry): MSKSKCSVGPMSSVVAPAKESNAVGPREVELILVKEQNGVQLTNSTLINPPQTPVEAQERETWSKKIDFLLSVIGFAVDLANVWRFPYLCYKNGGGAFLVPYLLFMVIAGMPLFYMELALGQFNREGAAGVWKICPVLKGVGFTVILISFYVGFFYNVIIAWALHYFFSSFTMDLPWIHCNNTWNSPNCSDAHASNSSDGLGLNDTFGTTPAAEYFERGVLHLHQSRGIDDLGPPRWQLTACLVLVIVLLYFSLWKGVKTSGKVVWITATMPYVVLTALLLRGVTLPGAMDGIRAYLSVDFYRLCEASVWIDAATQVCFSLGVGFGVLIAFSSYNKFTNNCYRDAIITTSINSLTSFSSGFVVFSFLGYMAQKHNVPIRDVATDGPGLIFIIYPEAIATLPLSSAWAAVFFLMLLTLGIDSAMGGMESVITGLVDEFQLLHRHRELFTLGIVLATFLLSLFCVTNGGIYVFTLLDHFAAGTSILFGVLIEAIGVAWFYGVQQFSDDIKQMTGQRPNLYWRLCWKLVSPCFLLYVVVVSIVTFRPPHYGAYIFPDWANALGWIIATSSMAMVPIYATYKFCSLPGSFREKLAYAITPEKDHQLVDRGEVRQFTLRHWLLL
T1 sequence (P41595 whole entry): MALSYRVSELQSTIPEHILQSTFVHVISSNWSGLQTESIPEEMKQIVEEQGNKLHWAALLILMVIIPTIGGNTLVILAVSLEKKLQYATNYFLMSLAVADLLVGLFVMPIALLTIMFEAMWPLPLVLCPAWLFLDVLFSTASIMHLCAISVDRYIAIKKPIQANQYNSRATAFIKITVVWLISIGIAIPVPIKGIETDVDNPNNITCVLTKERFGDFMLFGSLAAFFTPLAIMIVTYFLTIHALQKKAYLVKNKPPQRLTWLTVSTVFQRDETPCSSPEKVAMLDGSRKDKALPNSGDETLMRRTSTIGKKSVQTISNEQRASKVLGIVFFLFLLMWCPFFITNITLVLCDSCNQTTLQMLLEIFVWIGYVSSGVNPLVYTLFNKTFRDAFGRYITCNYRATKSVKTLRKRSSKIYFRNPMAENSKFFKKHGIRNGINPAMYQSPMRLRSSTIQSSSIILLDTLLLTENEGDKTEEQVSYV
T4 sequence (P31652 whole entry): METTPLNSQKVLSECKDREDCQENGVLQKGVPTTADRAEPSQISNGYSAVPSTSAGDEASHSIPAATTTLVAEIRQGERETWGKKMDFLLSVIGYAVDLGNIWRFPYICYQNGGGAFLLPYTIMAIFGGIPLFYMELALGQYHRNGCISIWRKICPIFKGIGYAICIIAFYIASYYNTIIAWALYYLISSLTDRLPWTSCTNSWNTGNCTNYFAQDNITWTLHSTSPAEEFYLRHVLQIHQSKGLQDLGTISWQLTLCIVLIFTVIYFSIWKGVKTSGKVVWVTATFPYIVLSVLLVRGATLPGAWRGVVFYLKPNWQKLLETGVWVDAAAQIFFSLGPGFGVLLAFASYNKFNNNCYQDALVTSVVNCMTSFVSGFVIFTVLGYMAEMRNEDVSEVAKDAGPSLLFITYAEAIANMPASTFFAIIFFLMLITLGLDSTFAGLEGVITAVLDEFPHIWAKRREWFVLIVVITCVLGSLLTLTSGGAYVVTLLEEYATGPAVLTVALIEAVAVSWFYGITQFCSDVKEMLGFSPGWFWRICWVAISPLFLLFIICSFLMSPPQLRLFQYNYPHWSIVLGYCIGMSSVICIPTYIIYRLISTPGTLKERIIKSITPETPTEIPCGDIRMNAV
T3 sequence (Q63380 1-617): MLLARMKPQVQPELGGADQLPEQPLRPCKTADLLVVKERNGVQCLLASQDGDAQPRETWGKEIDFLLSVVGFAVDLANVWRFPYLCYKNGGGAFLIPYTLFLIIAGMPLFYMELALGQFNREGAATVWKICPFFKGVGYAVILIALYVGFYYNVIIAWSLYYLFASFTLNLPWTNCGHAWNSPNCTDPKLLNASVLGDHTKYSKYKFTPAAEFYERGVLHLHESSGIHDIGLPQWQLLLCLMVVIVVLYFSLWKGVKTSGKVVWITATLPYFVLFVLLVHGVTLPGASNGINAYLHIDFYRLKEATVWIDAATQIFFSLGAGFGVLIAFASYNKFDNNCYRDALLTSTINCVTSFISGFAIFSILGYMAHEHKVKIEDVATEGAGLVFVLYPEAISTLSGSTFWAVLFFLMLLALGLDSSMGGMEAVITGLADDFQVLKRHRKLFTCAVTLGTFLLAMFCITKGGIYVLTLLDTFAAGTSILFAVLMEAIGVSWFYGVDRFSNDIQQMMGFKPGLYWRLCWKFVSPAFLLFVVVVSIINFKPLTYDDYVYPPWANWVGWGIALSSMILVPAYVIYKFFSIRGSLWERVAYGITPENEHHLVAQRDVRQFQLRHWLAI

One may read the inhibition as the relative decrease from the control value, in per cent. A high value points to a strong effect. One may read the EC50 as the concentration that produces a half-maximal response. In the case of `C[C@H]1NCCOC1c1cccc(Cl)c1` (stereo in doubt) [PAL594, 2-(3-chloro-phenyl)-3-methyl-morpholine], the activation at 10 µM on 5-HT2B receptor [1] is 2%; on DAT [3] it was 100%; at NET (Table 3), 82%; at SERT [4] it was 95%. On 5-HT2B receptor [2], the inhibition at 1 µM came to 28%. For the same compound, the concentration giving a half-maximal response (EC50) at DAT [3] was found to be 27 nM; on NET (NE Rel (EC50), Table 4), 75 nM; on SERT [4] it was 301 nM. Also, the “5HT releaser activity (in words)” value at SERT [4] is given as “improvements in 5HT release”.

At 5-HT2B receptor [1], `C[C@H]1NCCOC1c1ccccc1` (some centres unmarked) [PAL55, reference compound] registered an activation at 10 µM of 0%. Besides, the 50% effective concentration (EC50) is 131 nM on DAT [3], 50 nM at NET (setting [7]) and 7770 nM at SERT [4].

On to `C[C@H]1NCCO[C@@H]1c1ccccc1` [PAL56, (+)-phenmetrazine, reference compound], for which the activation at 10 µM on 5-HT2B receptor [1] is 0%. The compound further showed an inhibition at 1 µM at 5-HT2B receptor [2] of 42%. For the same compound, the “DA releaser activity (in words)” value at DAT [3] was “effective DA/5HT releaser”. Further, the EC50 at DAT [3] was 87 nM; at NET (NE Rel (EC50), Table 4), 38 nM; at NET (setting [7]), 37 nM; at SERT [4] it was 3250 nM. Moreover, on SERT [4], the “5HT releaser activity (in words)” value was “effective DA/5HT releaser”.

At 5-HT2B receptor [1], `C[C@@H]1NCCO[C@H]1c1ccccc1` [PAL57, reference compound] gave an activation at 10 µM of 0%. Moreover, the EC50 is 415 nM on DAT [3] and 63 nM on NET (setting [7]). Moreover, the “Release 5-HT (EC50 nm)” value on SERT [4] was “inactive”.

For `C[C@H]1NCCO[C@H]1c1ccccc1` [PAL60, reference compound], on 5-HT2B receptor [1], the activation at 10 µM came to 0%. For the same compound, the EC50 amounted to 1460 nM at DAT [3] and 349 nM on NET (setting [7]). Besides, the “Release 5-HT (EC50 nm)” value at SERT [4] is “Inactive”.

Consider `CC1NCCOC1(O)c1ccccc1` (centres unmarked) [PAL583, 3-methyl-2-phenylmorpholin-2-ol], for which the activation at 10 µM on 5-HT2B receptor [1] stood at 0%; on DAT [3], 29%; on NET (Table 3) it was 69%; at SERT [4], 0%. 1 µM produced 6% inhibition against 5-HT2B receptor [2].

For `CC1NCCOC1(O)c1cccc(F)c1` (centres unmarked) [PAL587, 2-(3-fluorophenyl)-3-methylmorpholin-2-ol], the activation at 10 µM at 5-HT2B receptor [1] worked out at 0%; on DAT [3] it was 34%; on NET (Table 3), 67%; on SERT [4], 6%. For the same compound, the inhibition at 1 µM on 5-HT2B receptor [2] came out at 0%.

In the case of `Cc1cccc(C2(O)OCCNC2C)c1` (centres unmarked) [PAL589, 3-methyl-2-(3′-tolyl)morpholin-2-ol], the activation at 10 µM at 5-HT2B receptor [1] is 0%; on DAT [3] it was 28%; at NET (Table 3), 47%; at SERT [4], 56%. Also, on 5-HT2B receptor [2], the inhibition at 1 µM came out at 12%.

With `CC1NCCOC1(O)c1cccc(Cl)c1` (centres unmarked) [PAL590, 2-(3-chlorophenyl)-3-methylmorpholin-2-ol], the activation at 10 µM on 5-HT2B receptor [1] is 0%; on DAT [3], 39%; at NET (Table 3), 62%; on SERT [4], 41%. Further, 1 µM produced 16% inhibition at 5-HT2B receptor [2].

Take `CC1NCCOC1c1cccc(F)c1` (centres unmarked) [PAL593, 2-(3-fluoro-phenyl)-3-methyl-morpholine]: the activation at 10 µM was 0% at 5-HT2B receptor [1], 100% at DAT [3], 93% on NET (Table 3) and 95% at SERT [4]. Also, the inhibition at 1 µM against 5-HT2B receptor [2] was determined as 1%.

With `c1ccc(C2CNCCO2)cc1` (centres unmarked) [PAL632], the activation at 10 µM at 5-HT2B receptor [1] stood at 2%; at DAT [3] it was 98%; at NET (Table 3), 96%; on SERT [4], 31%. The compound also had an inhibition at 1 µM against 5-HT2B receptor [2] of 12%. Besides, the concentration giving a half-maximal response (EC50) on DAT [3] came out at 86 nM; at NET (NE Rel (EC50), Table 4), 79 nM; on SERT [4], 20300 nM.

As to `Fc1ccc(C2CNCCO2)cc1` (centres unmarked) [PAL635, 2-(4-fluorophenyl)morpholine], the activation at 10 µM is 0% on 5-HT2B receptor [1], 95% at DAT [3], 100% at NET (Table 3) and 88% at SERT [4]. The EC50 stood at 529 nM at DAT [3]; 285 nM at NET (NE Rel (EC50), Table 4); 2400 nM at SERT [4].

In the case of `CC1NCCOC1c1ccc2ccccc2c1` (centres unmarked) [PAL 704, 3-Methyl-2-(2′-Naphthyl)morpholine hydrochloride], at DAT [3], the “DA releaser activity (in words)” value was “DA/NE releasers” and the midpoint of the response, the EC50, lay at 111 nM. Also, on NET, the “NE releaser activity (in words)” value is listed as “DA/NE releasers”. Moreover, the EC50 at NET (NE Rel (EC50), Table 4) was 203 nM. In addition, at SERT [5], the “5HT uptake inhibition (in words)” value was 5HT uptake inhibitors and the 50% effective concentration (EC50) is 105 nM.

Turning to `CC1NCCOC1c1cccc(C#N)c1.Cl` (centres unmarked) [PAL 786, 3-Methyl-[(3′-Cyano)-2-Phenyl]morpholine hydrochloride], the “DA Rel (%)” value at DAT [3] is 99%. The “NE Rel (%)” value on NET (Table 4) came out at 100%. For the same compound, on SERT [4], the “5HT Rel (%)” value came to 99%.

Consider `CC1NCCOC1c1ccc(Cl)c(Cl)c1.Cl` (centres unmarked) [PAL 788, 3-Methyl-[(3′,4′-Dichloro)-2-Phenyl]morpholine hydrochloride], for which, at DAT [3], the “DA releaser activity (in words)” value was “DA/NE releasers” and the “DA Rel (%)” value stood at 60%. Further, the “NE releaser activity (in words)” value on NET is “DA/NE releasers”. Moreover, the “NE Rel (%)” value at NET (Table 4) turned out to be 98%. On SERT [5], the “5HT uptake inhibition (in words)” value came out at 5HT uptake inhibitors. The “5HT Up (%)” value on SERT [5] (Table 4) is on record as 95%.

In the case of `CC1NCCOC1c1ccc(F)c(Cl)c1.Cl` (centres unmarked) [PAL 821, 3-Methyl-[(3′-Chloro-4′-Fluoro)-2-Phenyl]morpholine hydrochloride], the “DA Rel (%)” value at DAT [3] is recorded as 94%. The “NE Rel (%)” value at NET (Table 4) came out at 80%. For the same compound, the “5HT Rel (%)” value on SERT [4] is given as 71%.

Take `COc1cccc(C2OCCNC2C)c1.COc1cccc(C2OCCNC2C)c1.O=C(O)/C=C/C(=O)O` (centres unmarked) [PAL 823, 3-Methyl-[(3′-Methoxy)-2-Phenyl]morpholine (0.5 fumarate)]: the “DA Rel (%)” value on DAT [3] was 96%. The “NE Rel (%)” value on NET (Table 4) came to 86%. On SERT [4], the “5HT Rel (%)” value came out at 78%.

Consider `C[C@H]1CO[C@@H](c2ccc(Cl)cc2)CN1` [PAL 899, (2S,5S)-2-(4-Chloro-phenyl)-5-methyl-morpholine], for which the “DA Up (%)” value at DAT [6] came to 90%.

Take `Cc1ccc([C@H]2CN[C@@H](C)CO2)cc1` [PAL 914, (2S,5S)-5-Methyl-2-p-tolyl-morpholine]: the “DA Up (%)” value at DAT [6] is recorded as 88%.
